Experimental findings from PubChem BioAssay (NCI) are described below.

Some test systems named below: SF-268 CNS; A549 NSCLC; OVCAR-3 ovarian; UACC-62 melanoma; MCF7 breast; HCT-15 colon; NCI-H460 lung; DU-145 prostate; M14 melanoma; NCI-H226 lung.
Common to all, as to test: DTP human tumour cell line panel, 48 h

Each structure is given as a SMILES string.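 These data come from cells grown in 96-well plates and exposed to compound for 48 hours at five concentrations. TGI: total growth inhibition.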

In general, TGI refers to the concentration giving total growth inhibition. A low value points to more potent growth arrest.

As to `CCOC(=O)C1C(=O)C=C(c2cc(C)ccc2O)CC1c1cccc(Br)c1` (centres undefined), the TGI in the experiment on SF-268 CNS is 77.9 µM; with A549 NSCLC, 51.2 µM; with OVCAR-3 ovarian, 84.8 µM; with UACC-62 melanoma, 28 µM; with MCF7 breast, 87.1 µM; in the experiment with HCT-15 colon, 10.4 µM. Also, the TGI in the experiment with NCI-H460 lung was 50.6 µM; in the experiment on DU-145 prostate it was > 100 µM; with M14 melanoma it was 37 µM; in the experiment with NCI-H226 lung, 37.3 µM.

Regarding `CC(C)Oc1c(O)c2c3c(oc(=O)n3C=CC2c2ccccc2F)c1OC(C)C` (centres undefined), the TGI in the experiment with SF-268 CNS, with A549 NSCLC, with OVCAR-3 ovarian, in the experiment on UACC-62 melanoma, in the experiment with MCF7 breast and with HCT-15 colon was > 100 µM in each case. Also, the TGI with NCI-H460 lung was > 100 µM; in the experiment on DU-145 prostate, > 100 µM; in the experiment with M14 melanoma, 65.4 µM; in the experiment with NCI-H226 lung, > 100 µM.

Turning to `O=C1NC(N2CCCC(CO)C2)=N/C1=C\c1ccc(O)cc1` (centres undefined), the total growth inhibition concentration (TGI) in the experiment with SF-268 CNS, in the experiment with A549 NSCLC, in the experiment on OVCAR-3 ovarian, in the experiment on UACC-62 melanoma, in the experiment on MCF7 breast and in the experiment with HCT-15 colon was > 100 µM each time. Further, the concentration for total growth inhibition (TGI) in the experiment on DU-145 prostate, in the experiment on M14 melanoma and in the experiment with NCI-H226 lung was > 100 µM in each case.

With `COC(=O)C(I(OS(=O)(=O)c1ccc(C)cc1)c1ccccc1)=P(c1ccccc1)(c1ccccc1)c1ccccc1`, the TGI in the experiment on SF-268 CNS was 33.4 µM; in the experiment on A549 NSCLC it was 60.6 µM; with OVCAR-3 ovarian, 33.4 µM; in the experiment with UACC-62 melanoma, 35.1 µM; with MCF7 breast, 94.5 µM; with HCT-15 colon, > 100 µM. The TGI with NCI-H460 lung was > 100 µM; in the experiment on DU-145 prostate, 32.4 µM; in the experiment with M14 melanoma it was 32.4 µM; in the experiment with NCI-H226 lung, 23.2 µM.

As for `COc1cc(NS(C)(=O)=O)ccc1N1Cc2cnc3ccc4[nH]ccc1c4c23`, the TGI in the experiment with SF-268 CNS was 75.2 µM; in the experiment with A549 NSCLC, > 100 µM; with OVCAR-3 ovarian it was > 100 µM; with UACC-62 melanoma, > 100 µM; in the experiment on MCF7 breast, > 100 µM; in the experiment on HCT-15 colon, > 100 µM. Besides, the concentration for total growth inhibition (TGI) in the experiment with NCI-H460 lung was 43.8 µM; in the experiment on DU-145 prostate, > 100 µM; in the experiment with M14 melanoma it was > 100 µM; in the experiment on NCI-H226 lung it was 93.5 µM.

Consider `CCOc1c(OC)cc(CNNc2nccs2)cc1OC`, for which the TGI in the experiment on SF-268 CNS, in the experiment with A549 NSCLC, in the experiment on OVCAR-3 ovarian, in the experiment on MCF7 breast, in the experiment on HCT-15 colon and with NCI-H460 lung was > 100 µM throughout. Moreover, the total growth inhibition concentration (TGI) with DU-145 prostate, in the experiment on M14 melanoma and with NCI-H226 lung was > 100 µM each time.

Turning to `Cc1[nH]c(=O)nc2c1C(=O)N(C(C)C)C(NC(C)C)S2` (centres undefined), the TGI in the experiment on A549 NSCLC, in the experiment on OVCAR-3 ovarian, in the experiment with UACC-62 melanoma, in the experiment with MCF7 breast, with HCT-15 colon and in the experiment on DU-145 prostate was > 100 µM each time. The TGI in the experiment on M14 melanoma and in the experiment with NCI-H226 lung was > 100 µM each time.

For `COc1cc(OC)cc(N(C)Cc2cnc3nc(N)nc(N)c3c2C)c1`, the TGI is > 100 µM in the experiment with SF-268 CNS; > 100 µM in the experiment with A549 NSCLC; > 31.6 µM in the experiment with OVCAR-3 ovarian; > 100 µM in the experiment with UACC-62 melanoma; > 100 µM in the experiment on MCF7 breast; > 100 µM in the experiment on HCT-15 colon. Besides, the TGI in the experiment on NCI-H460 lung was > 100 µM; in the experiment on DU-145 prostate, > 100 µM; in the experiment on M14 melanoma, 55.4 µM; in the experiment with NCI-H226 lung, > 100 µM.

Regarding `C=C(Cl)C(Cl)(CBr)CCC(Cl)C(C)C` (centres undefined), the TGI with SF-268 CNS stood at 11.5 µM; in the experiment with A549 NSCLC, 27.1 µM; in the experiment on OVCAR-3 ovarian, 3.45 µM; in the experiment with UACC-62 melanoma, 14 µM; with MCF7 breast, 2.57 µM; in the experiment on HCT-15 colon it was 22.1 µM. For the same compound, the concentration for total growth inhibition (TGI) in the experiment with NCI-H460 lung is 5.47 µM; in the experiment on DU-145 prostate it was 3.77 µM; with M14 melanoma, 42.6 µM; in the experiment with NCI-H226 lung it was > 65.5 µM.

On to `CC(C)(C)OC(=O)N1CC(COS(C)(=O)=O)c2ccc(O)cc21` (centres undefined), for which the TGI amounted to 4.33 µM in the experiment with SF-268 CNS; 10.7 µM in the experiment on A549 NSCLC; 7.25 µM in the experiment on OVCAR-3 ovarian; 3.2 µM in the experiment with UACC-62 melanoma; 7.49 µM in the experiment with MCF7 breast; 5.68 µM in the experiment on HCT-15 colon. Also, the TGI was determined as 5.45 µM in the experiment on NCI-H460 lung, 3.53 µM in the experiment on DU-145 prostate, 3.14 µM with M14 melanoma and 4.67 µM with NCI-H226 lung.

Turning to `C[N+](C)([O-])Cc1cccc(NC(=O)c2ccc(C(=O)Nc3cccc(C[N+](C)(C)[O-])c3)cc2)c1`, the TGI with SF-268 CNS, in the experiment on A549 NSCLC, in the experiment on OVCAR-3 ovarian, with UACC-62 melanoma, in the experiment on MCF7 breast and with HCT-15 colon was > 100 µM throughout. Further, the TGI with NCI-H460 lung, with DU-145 prostate, in the experiment on M14 melanoma and in the experiment on NCI-H226 lung was > 100 µM throughout.

Regarding `CC(C)(C)OC(=O)N(CCCN)CCCCN(CCCN)C(=O)OC(C)(C)C`, the total growth inhibition concentration (TGI) in the experiment with SF-268 CNS, in the experiment with A549 NSCLC, with OVCAR-3 ovarian, in the experiment with UACC-62 melanoma, in the experiment on MCF7 breast and with HCT-15 colon was > 100 µM in each case. The TGI in the experiment with NCI-H460 lung, with DU-145 prostate, with M14 melanoma and in the experiment with NCI-H226 lung was > 100 µM throughout.

In the case of `CC(=O)CC(=O)Nn1c(-c2cccs2)nc2ccc(I)cc2c1=O`, the TGI is > 100 µM in the experiment on SF-268 CNS; > 100 µM in the experiment with A549 NSCLC; > 78.5 µM in the experiment with OVCAR-3 ovarian; > 85 µM in the experiment on UACC-62 melanoma; > 100 µM in the experiment with MCF7 breast; > 100 µM with HCT-15 colon. Also, the TGI in the experiment on NCI-H460 lung was > 100 µM; in the experiment with DU-145 prostate it was > 96.6 µM; in the experiment with M14 melanoma, > 100 µM; in the experiment on NCI-H226 lung, > 76.4 µM.

With `CC(=S)NC1C(Oc2ccc3c(C)cc(=O)oc3c2)OC(CO)C(O)C1O` (centres undefined), the TGI in the experiment with A549 NSCLC, in the experiment on OVCAR-3 ovarian, in the experiment with UACC-62 melanoma, in the experiment with MCF7 breast, in the experiment on HCT-15 colon and in the experiment with NCI-H460 lung was > 100 µM each time. In addition, the TGI with DU-145 prostate and in the experiment with NCI-H226 lung was > 100 µM each time.
